Measured values published in patent US20260242395A1, “AMINOHETEROARYL KINASE INHIBITORS” (ALLORION THERAPEUTICS INC, priority 2022, published 2026).

Experiments:
CDK6/CyclinD3 = biological target: T1, CDK6/CyclinD3 (Homo sapiens, UniProt Q00534); test: CDK6/CyclinD3 kinase inhibitory activity (Caliper mobility shift); assay type: biochemical; conditions: enzyme 15 nM, ATP 800 μM, 28° C. 30 min; read-out: CDK6/Cyclin D3 IC50
T1 construct: purchased Carna 04-107
Experimental: CDK6/CyclinD3 kinase inhibitory activity (IC50): 5 μl of various dilutions of test compound in 1× kinase buffer (50 mM HEPES pH 7.5, 10 mM MgCl2, 2 mM DTT and 0.01% Brij-35) was mixed with 10 μL of CDK6/CyclinD3 (Carna, 04-107 #, final concentration 15 nM in 1× Kinase buffer) in 384 plates and incubated at room temperature for 10 min. To initiate each reaction, 10 μL of peptide solution containing fluorescently-labeled -peptide 8(5-FAM-IPTSPITTTYFFFKKK-COOH, GL, 112396 #, final concentration 3000 nM) and ATP (final concentration 800 μM for CDK6/CyclinD3 in 1× Kinase buffer was added to each of the wells containing test compound and CDK6/CyclinD3. The reaction is then allowed to proceed at 28° C. for 30 min and terminated by the addition of 25 μL stop buffer (100 mM HEPES pH 7.5, 50 mM EDTA, 0.2% Coating Reagent #3 (Perkin Elmer, 760050 #) and 0.015% Brij-35).
(§1) Following the kinase reaction, Caliper EZ reader II (Downstream voltages: −500V, Upstream voltages: −2250V, Base pressure −0.5 PSI, Screen pressure −1.2 PSI) was used to separate the phosphorylated (product) and the unphosphorylated (substrate) fluorescently-labeled peptide 8 based on their different mobility. Both substrate and product were measured and the ratio of these values were used to generate % conversion by Caliper EZ reader II. These conversion values were then transformed into % inhibition of kinase activity using the formula: % Inhibition=[(MA−X)/(MA−MI)]×100% where MA=conversion value of DMSO only controls, MI=conversion value of no enzyme controls and X=conversion value at any given compound dose. IC50 values were then calculated by plotting dose-response curves and then using the XLfit application in Excel software.

CDK4/CyclinD1 = biological target: T2, CDK4/CyclinD1 (Homo sapiens, UniProt P11802); test: CDK4/CyclinD1 kinase inhibitory activity (Caliper mobility shift); assay type: biochemical; conditions: enzyme 20 nM, ATP 672 uM, 28° C. 30 min; read-out: CDK4/Cyclin D1 IC50
T2 construct: purchased ProQinase 0142-0143-1
Experimental: CDK4/CyclinD1 kinase inhibitory activity (IC50): 5 μl of various dilutions of test compound in 1× kinase buffer (20 mM HEPES, pH 7.5, 10 mM MgCl2, 2 mM DTT and 0.01% Triton X-100) was mixed with 10 μL of either CDK4/Cyclin D1 (ProQinase, 0142-0143-1 #, final concentration 20 nM in 1× Kinase buffer) or in 384 plates and incubated at room temperature for 10 min. To initiate each reaction, 10 μL of peptide solution containing fluorescently-labeled-peptide 8(5-FAM-IPTSPITTTYFFFKKK-COOH, GL, 112396 #, final concentration 3000 nM) and ATP (final concentration 672 uM for CDK4/CyclinD1) in 1×Kinase buffer was added to each of the wells containing test compound and CDK4/CyclinD1 mixture. The reaction is then allowed to proceed at 28° C. for 30 min and terminated by the addition of 25 μL stop buffer (100 mM HEPES pH 7.5, 50 mM EDTA, 0.2% Coating Reagent #3 (Perkin Elmer, 760050 #) and 0.015% Brij-35).
as §1

T2 sequence (P11802 whole entry): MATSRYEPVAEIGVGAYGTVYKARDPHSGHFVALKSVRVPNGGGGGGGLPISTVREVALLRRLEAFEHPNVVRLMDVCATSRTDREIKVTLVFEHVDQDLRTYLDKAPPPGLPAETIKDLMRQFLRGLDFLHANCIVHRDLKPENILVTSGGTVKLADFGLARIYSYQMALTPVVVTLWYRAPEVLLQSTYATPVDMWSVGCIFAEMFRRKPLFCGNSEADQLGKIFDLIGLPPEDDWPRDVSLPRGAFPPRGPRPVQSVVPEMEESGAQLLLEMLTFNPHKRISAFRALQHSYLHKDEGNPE
T2 sequence (P24385 whole entry partner): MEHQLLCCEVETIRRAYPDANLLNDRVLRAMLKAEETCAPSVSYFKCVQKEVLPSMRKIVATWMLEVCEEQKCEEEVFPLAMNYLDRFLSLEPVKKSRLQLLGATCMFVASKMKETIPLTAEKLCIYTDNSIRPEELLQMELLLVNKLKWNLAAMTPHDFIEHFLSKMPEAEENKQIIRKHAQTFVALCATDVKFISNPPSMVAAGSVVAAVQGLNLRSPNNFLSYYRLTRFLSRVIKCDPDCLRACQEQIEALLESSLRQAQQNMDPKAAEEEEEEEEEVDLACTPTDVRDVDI
T1 sequence (Q00534 whole entry): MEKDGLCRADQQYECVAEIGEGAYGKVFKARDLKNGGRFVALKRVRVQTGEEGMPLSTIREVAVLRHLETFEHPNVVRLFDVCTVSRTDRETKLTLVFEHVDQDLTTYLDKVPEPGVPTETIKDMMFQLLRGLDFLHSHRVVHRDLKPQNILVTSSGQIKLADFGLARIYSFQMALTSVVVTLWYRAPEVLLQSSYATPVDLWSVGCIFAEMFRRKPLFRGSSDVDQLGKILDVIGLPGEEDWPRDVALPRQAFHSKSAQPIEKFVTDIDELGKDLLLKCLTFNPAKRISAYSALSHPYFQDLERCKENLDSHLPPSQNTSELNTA
T1 sequence (P30281 whole entry partner): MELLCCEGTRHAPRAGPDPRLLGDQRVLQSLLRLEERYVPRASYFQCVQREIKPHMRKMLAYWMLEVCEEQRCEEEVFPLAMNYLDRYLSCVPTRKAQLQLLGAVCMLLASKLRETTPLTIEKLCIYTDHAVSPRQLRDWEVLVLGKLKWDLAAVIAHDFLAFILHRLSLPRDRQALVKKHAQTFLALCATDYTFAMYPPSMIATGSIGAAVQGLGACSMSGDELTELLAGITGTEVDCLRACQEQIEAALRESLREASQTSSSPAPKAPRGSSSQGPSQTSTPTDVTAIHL

O[C@@H]1COCC[C@H]1Nc1ncc(Cl)c(-c2cc(F)c3ncc4c(c3c2)C2CCC(C4)N2)n1 (single isomer, unassigned) [Example 20a]
IC50 (CDK6/CyclinD3): ≥ 1000 nM | IC50 (CDK4/CyclinD1): 100 to 1000 nM

CC1NCCc2cnc3c(F)cc(-c4nc(N[C@@H]5CCOC[C@H]5O)ncc4Cl)cc3c21 (single isomer, unassigned) [Example 31a]
IC50 (CDK6/CyclinD3): ≥ 1000 nM | IC50 (CDK4/CyclinD1): 10 to 100 nM

CC1NCCc2cnc3c(F)cc(-c4nc(N[C@@H]5CCOC[C@H]5O)ncc4Cl)cc3c21 (single isomer, unassigned) [Example 31b]
IC50 (CDK6/CyclinD3): 100 to 1000 nM | IC50 (CDK4/CyclinD1): < 10 nM

CNC(C)c1cnc2c(F)cc(-c3nc(N[C@@H]4CCOC[C@H]4O)ncc3Cl)cc2c1 (single isomer, unassigned) [Example 32b]
IC50 (CDK6/CyclinD3): 100 to 1000 nM | IC50 (CDK4/CyclinD1): 10 to 100 nM

CC1(O)CCc2nc3c(F)cc(-c4nc(N[C@@H]5CCOC[C@H]5O)ncc4Cl)cc3cc21 (single isomer, unassigned) [Example 38a]
IC50 (CDK6/CyclinD3): 10 to 100 nM | IC50 (CDK4/CyclinD1): < 10 nM

CC1(O)CCc2nc3c(F)cc(-c4nc(N[C@@H]5CCOC[C@H]5O)ncc4Cl)cc3cc21 (single isomer, unassigned) [Example 38b]
IC50 (CDK6/CyclinD3): 10 to 100 nM | IC50 (CDK4/CyclinD1): < 10 nM

CCC(O)c1cc2cc(-c3nc(N[C@@H]4CCOC[C@H]4O)ncc3Cl)cc(F)c2nc1C (single isomer, unassigned) [Example 39a]
IC50 (CDK6/CyclinD3): 100 to 1000 nM | IC50 (CDK4/CyclinD1): < 10 nM

CCC(O)c1cc2cc(-c3nc(N[C@@H]4CCOC[C@H]4O)ncc3Cl)cc(F)c2nc1C (single isomer, unassigned) [Example 39b]
IC50 (CDK6/CyclinD3): 100 to 1000 nM | IC50 (CDK4/CyclinD1): < 10 nM

CC(O)c1cnc2c(F)cc(-c3nc(N[C@@H]4CCOC[C@H]4O)ncc3Cl)cc2c1Cl (single isomer, unassigned) [Example 40b]
IC50 (CDK6/CyclinD3): 100 to 1000 nM | IC50 (CDK4/CyclinD1): < 10 nM

CNC(C)c1cnc2c(F)cc(-c3nc(N[C@@H]4CCOC[C@H]4O)ncc3Cl)cc2c1C (single isomer, unassigned) [Example 48a]
IC50 (CDK6/CyclinD3): 100 to 1000 nM | IC50 (CDK4/CyclinD1): < 10 nM

CNC(C)c1cnc2c(F)cc(-c3nc(N[C@@H]4CCOC[C@H]4O)ncc3Cl)cc2c1C (single isomer, unassigned) [Example 48b]
IC50 (CDK6/CyclinD3): 100 to 1000 nM | IC50 (CDK4/CyclinD1): 10 to 100 nM

CNC(C)c1cc2cc(-c3nc(N[C@@H]4CCOC[C@H]4O)ncc3F)cc(F)c2nc1C (single isomer, unassigned) [Example 54a]
IC50 (CDK6/CyclinD3): 100 to 1000 nM | IC50 (CDK4/CyclinD1): < 10 nM

CNC(C)c1cc2cc(-c3nc(N[C@@H]4CCOC[C@H]4O)ncc3F)cc(F)c2nc1C (single isomer, unassigned) [Example 54b]
IC50 (CDK6/CyclinD3): 100 to 1000 nM | IC50 (CDK4/CyclinD1): < 10 nM

Cc1nc2c(F)cc(-c3nc(N[C@@H]4CCOC[C@H]4O)ncc3Cl)cc2cc1C1CCCN1 (single isomer, unassigned) [Example 57b]
IC50 (CDK6/CyclinD3): ≥ 1000 nM | IC50 (CDK4/CyclinD1): 10 to 100 nM

CNC(C)c1cnc2c(F)cc(-c3nc(N[C@@H]4CCOC[C@H]4O)ncc3F)cc2c1C (single isomer, unassigned) [Example 59b]
IC50 (CDK6/CyclinD3): 100 to 1000 nM | IC50 (CDK4/CyclinD1): 10 to 100 nM

CNC(C)c1cnc2c(F)cc(-c3nc(N[C@@H]4CCOC[C@H]4O)ncc3Cl)cc2c1Cl (single isomer, unassigned) [Example 63a]
IC50 (CDK6/CyclinD3): 100 to 1000 nM | IC50 (CDK4/CyclinD1): 10 to 100 nM

CNC(C)c1cnc2c(F)cc(-c3nc(N[C@@H]4CCOC[C@H]4O)ncc3F)cc2c1Cl (single isomer, unassigned) [Example 64a]
IC50 (CDK6/CyclinD3): 100 to 1000 nM | IC50 (CDK4/CyclinD1): 10 to 100 nM

CNC(C)c1cnc2c(F)cc(-c3nc(N[C@@H]4CCOC[C@H]4O)ncc3F)cc2c1Cl (single isomer, unassigned) [Example 64b]
IC50 (CDK6/CyclinD3): 100 to 1000 nM | IC50 (CDK4/CyclinD1): 10 to 100 nM

Cc1nc2c(F)cc(-c3nc(N[C@@H]4CCOC[C@H]4O)ncc3Cl)cc2cc1C(C)NC1CC1 (single isomer, unassigned) [Example 73a]
IC50 (CDK6/CyclinD3): 100 to 1000 nM | IC50 (CDK4/CyclinD1): 10 to 100 nM

Cc1nc2c(F)cc(-c3nc(N[C@@H]4CCOC[C@H]4O)ncc3F)cc2cc1C(C)NC1CC1 (single isomer, unassigned) [Example 74b]
IC50 (CDK6/CyclinD3): 100 to 1000 nM | IC50 (CDK4/CyclinD1): < 10 nM

[2H]c1nc(N[C@@H]2CCOC[C@H]2O)nc(-c2cc(F)c3nc(C)c(C(C)NC4CC4)cc3c2)c1F (single isomer, unassigned) [Example 77a]
IC50 (CDK6/CyclinD3): 100 to 1000 nM | IC50 (CDK4/CyclinD1): < 10 nM

[2H]c1nc(N[C@@H]2CCOC[C@H]2O)nc(-c2cc(F)c3nc(C)c(C(C)NC4CC4)cc3c2)c1F (single isomer, unassigned) [Example 77b]
IC50 (CDK6/CyclinD3): 100 to 1000 nM | IC50 (CDK4/CyclinD1): < 10 nM

Cc1nc2c(F)cc(-c3ccnc(N[C@@H]4CCOC[C@H]4O)n3)cc2c(C)c1C(C)O (single isomer, unassigned) [Example 82a]
IC50 (CDK6/CyclinD3): 100 to 1000 nM | IC50 (CDK4/CyclinD1): 10 to 100 nM

Cc1nc2c(F)cc(-c3ccnc(N[C@@H]4CCOC[C@H]4O)n3)cc2c(C)c1C(C)O (single isomer, unassigned) [Example 82b]
IC50 (CDK6/CyclinD3): 100 to 1000 nM | IC50 (CDK4/CyclinD1): 10 to 100 nM

[2H]c1nc(N[C@@H]2CCOC[C@H]2O)nc(-c2cc(F)c3nc(C)c(C(C)O)c(C)c3c2)c1F (single isomer, unassigned) [Example 84a]
IC50 (CDK6/CyclinD3): 10 to 100 nM | IC50 (CDK4/CyclinD1): < 10 nM

[2H]c1nc(N[C@@H]2CCOC[C@H]2O)nc(-c2cc(F)c3nc(C)c(C(C)O)c(C)c3c2)c1Cl (single isomer, unassigned) [Example 85a]
IC50 (CDK6/CyclinD3): 10 to 100 nM | IC50 (CDK4/CyclinD1): < 10 nM

[2H]c1nc(N[C@@H]2CCOC[C@H]2O)nc(-c2cc(F)c3nc(C)c(C(C)O)c(C)c3c2)c1Cl (single isomer, unassigned) [Example 85b]
IC50 (CDK6/CyclinD3): 10 to 100 nM | IC50 (CDK4/CyclinD1): < 10 nM

Cc1c(C(C)O)cnc2c(F)cc(-c3nc(N[C@@H]4CCOC[C@H]4O)ncc3Cl)cc12 (single isomer, unassigned) [Example 88b]
IC50 (CDK6/CyclinD3): 10 to 100 nM | IC50 (CDK4/CyclinD1): < 10 nM

CC(NC1CC1)c1cnc2c(F)cc(-c3nc(N[C@@H]4CCOC[C@H]4O)ncc3Cl)cc2c1Cl (single isomer, unassigned) [Example 90a]
IC50 (CDK6/CyclinD3): 100 to 1000 nM | IC50 (CDK4/CyclinD1): 10 to 100 nM

CC(NC1CC1)c1cnc2c(F)cc(-c3nc(N[C@@H]4CCOC[C@H]4O)ncc3Cl)cc2c1Cl (single isomer, unassigned) [Example 90b]
IC50 (CDK6/CyclinD3): 100 to 1000 nM | IC50 (CDK4/CyclinD1): < 10 nM

Cc1c(C(C)NC2CC2)cnc2c(F)cc(-c3nc(N[C@@H]4CCOC[C@H]4O)ncc3Cl)cc12 (single isomer, unassigned) [Example 91a]
IC50 (CDK6/CyclinD3): 100 to 1000 nM | IC50 (CDK4/CyclinD1): 10 to 100 nM

Cc1c(C(C)NC2CC2)cnc2c(F)cc(-c3nc(N[C@@H]4CCOC[C@H]4O)ncc3F)cc12 (single isomer, unassigned) [Example 93a]
IC50 (CDK6/CyclinD3): 100 to 1000 nM | IC50 (CDK4/CyclinD1): 10 to 100 nM

Cc1c(C(C)NC2CC2)cnc2c(F)cc(-c3nc(N[C@@H]4CCOC[C@H]4O)ncc3F)cc12 (single isomer, unassigned) [Example 93b]
IC50 (CDK6/CyclinD3): 100 to 1000 nM | IC50 (CDK4/CyclinD1): < 10 nM

CC1(C)NCc2c(cnc3c(F)cc(-c4nc(N[C@@H]5CCOC[C@H]5O)ncc4F)cc23)C1O (single isomer, unassigned) [Example 106a]
IC50 (CDK6/CyclinD3): 100 to 1000 nM | IC50 (CDK4/CyclinD1): < 10 nM

COC1c2cnc3c(F)cc(-c4nc(N[C@@H]5CCOC[C@H]5O)ncc4F)cc3c2CNC1(C)C (single isomer, unassigned) [Example 108a]
IC50 (CDK6/CyclinD3): ≥ 1000 nM | IC50 (CDK4/CyclinD1): 10 to 100 nM

COC1c2cnc3c(F)cc(-c4nc(N[C@@H]5CCOC[C@H]5O)ncc4F)cc3c2CNC1(C)C (single isomer, unassigned) [Example 108b]
IC50 (CDK6/CyclinD3): 100 to 1000 nM | IC50 (CDK4/CyclinD1): < 10 nM

CN1Cc2c(cnc3c(F)cc(-c4nc(N[C@@H]5CCOC[C@H]5O)ncc4Cl)cc23)C(O)C1(C)C (single isomer, unassigned) [Example 111a]
IC50 (CDK6/CyclinD3): 100 to 1000 nM | IC50 (CDK4/CyclinD1): 10 to 100 nM

CN1Cc2c(cnc3c(F)cc(-c4nc(N[C@@H]5CCOC[C@H]5O)ncc4Cl)cc23)C(O)C1(C)C (single isomer, unassigned) [Example 111b]
IC50 (CDK6/CyclinD3): ≥ 1000 nM | IC50 (CDK4/CyclinD1): 100 to 1000 nM
